Reference: patent US11306072B2, “5-bromo-indirubins” (City of Hope, priority 2013, dated 2022)
Read-outs that look alike come from different tables or passages of the source.

Experiments:
[1] = test system: A549 non-small cell lung cancer cells; experiment: MTS cell viability assay, A549 lung cancer cells; assay type: cell-based; settings: Homo sapiens, 48 h exposure, quadruplicate, read-out: IC50 values against cancer cells, A549 lung
Description: (§1) FIGS. 2A-2G. Effects of 5BIODs on viabilities of human cancer cells; MTS assays were performed for cell viability; human A549 non-small cell lung cancer (FIG. 2A), MDA-MB-231 and MDA-MB-468 breast cancer (FIG. 2B), A2058 melanoma (FIG. 2C), DU145 prostate cancer (FIG. 2D), SKOV3 ovarian cancer (FIG. 2E), T315I Abl mutant KCL-22 CML (FIG. 2F) and MIA-PaCa2 pancreatic cancer (FIG. 2G) cells were seeded in 96-well plates (5000/well for solid tumor cell lines and 10000 cells/well for CML cell line), incubated overnight at 37° C. in 5% (v/v) CO2 and exposed to 5BIODs at 1 μM or 10 μM concentration for 48 h; DMSO was used as the vehicle control; cell viability was determined by tetrazolium conversion to its formazan dye and absorbance was measured at 490 nm using an automated ELISA plate reader; each experiment was performed in quadruplicate. Histogram ordering: FIG. 2B depicts MDA-MB-231 (black) and MDA-MB-468 (gray), in order left to right; FIG. 2C: 1 μM (gray); 10 μM (black), in order left to right; FIG. 2D: 1 μM (gray); 10 μM (black), in order left to right;

ABL1 (T315I) = ABL1 (T315I) (Homo sapiens, UniProt P00519, T315I); experiment: In vitro kinase assay with recombinant protein (33P-ATP), ABL1 (T315I); assay type: biochemical; settings: 120 min at room temperature, read-out: IC50 against kinase activity in vitro, ABL1 (T315I)
Description: (§2) The kinase assays were performed with recombinant proteins. Briefly, proteins, freshly prepared substrates and ^33P-ATP (specific activity 0.01 μCi/μl final) were mixed in reaction buffer (20 mM HEPES pH 7.5, 10 mM MgCl2, 1 mM EGTA, 0.02% Brij35, 0.02 mg/ml BSA, 0.1 mM Na3VO4, 2 mM DTT) in the presence of DMSO as control or 5BIODs. The mixtures were reacted for 120 min at room temperature. Samples were transferred onto P81 ion exchange paper and filters were extensively washed with 0.75% phosphoric acid. The radioactivities were monitored.

AuroraA = biological target: T1, AuroraA (Homo sapiens, UniProt O14965); experiment: In vitro kinase assay with recombinant protein (33P-ATP), AuroraA; assay type: biochemical; settings: 120 min at room temperature, read-out: IC50 against kinase activity in vitro, AuroraA
T1 sequence (O14965 1-403): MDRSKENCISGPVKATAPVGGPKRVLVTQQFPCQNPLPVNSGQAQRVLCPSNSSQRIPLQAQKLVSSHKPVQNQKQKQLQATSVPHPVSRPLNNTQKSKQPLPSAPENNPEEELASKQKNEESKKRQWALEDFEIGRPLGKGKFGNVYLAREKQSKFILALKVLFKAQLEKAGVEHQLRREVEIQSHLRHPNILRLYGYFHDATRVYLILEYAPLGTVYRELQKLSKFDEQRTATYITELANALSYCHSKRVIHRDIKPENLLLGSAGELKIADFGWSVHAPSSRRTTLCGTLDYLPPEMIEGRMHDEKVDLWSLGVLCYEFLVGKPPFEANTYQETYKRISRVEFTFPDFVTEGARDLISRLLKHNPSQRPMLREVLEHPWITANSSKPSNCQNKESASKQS
Description: as §2

[2] = test system: MDA-MB-231 breast cancer cells; experiment: MTS cell viability assay, MDA-MB-231 breast cancer cells; assay type: cell-based; settings: Homo sapiens, 48 h exposure, quadruplicate, read-out: IC50 values against cancer cells, MDA-MB-231 breast
Description: as §1

ABL1 = ABL1 (Homo sapiens, UniProt P00519); experiment: In vitro kinase assay with recombinant protein (33P-ATP), ABL1; assay type: biochemical; settings: 120 min at room temperature, read-out: IC50 against kinase activity in vitro, ABL1
Description: as §2

A2058 melanoma cells = experiment: MTS cell viability assay, A2058 melanoma cells; assay type: cell-based, human; settings: quadruplicate, read-out: IC50 values against cancer cells, A2058 melanoma
Description: as §1

c-Src = c-Src (Homo sapiens, UniProt P12931); experiment: In vitro kinase assay with recombinant protein (33P-ATP), c-Src; assay type: biochemical; settings: 120 min at room temperature, read-out: IC50 against kinase activity in vitro, c-Src
Chain of c-Src (P12931 whole entry): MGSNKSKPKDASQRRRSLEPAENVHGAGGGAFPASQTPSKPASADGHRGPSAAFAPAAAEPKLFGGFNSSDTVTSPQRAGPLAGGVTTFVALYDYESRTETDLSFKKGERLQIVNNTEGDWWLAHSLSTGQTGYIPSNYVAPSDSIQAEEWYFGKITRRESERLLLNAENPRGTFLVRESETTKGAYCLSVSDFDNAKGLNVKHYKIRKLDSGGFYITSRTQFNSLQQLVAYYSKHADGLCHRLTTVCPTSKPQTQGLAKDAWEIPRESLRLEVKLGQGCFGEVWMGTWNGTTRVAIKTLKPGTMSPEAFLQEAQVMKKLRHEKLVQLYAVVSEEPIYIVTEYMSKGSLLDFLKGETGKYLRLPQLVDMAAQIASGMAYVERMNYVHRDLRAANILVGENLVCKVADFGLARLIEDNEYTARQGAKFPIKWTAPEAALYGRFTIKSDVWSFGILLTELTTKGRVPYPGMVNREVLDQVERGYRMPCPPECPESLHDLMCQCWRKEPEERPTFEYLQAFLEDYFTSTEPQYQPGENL
Description: as §2

[3] = test system: T315I Abl mutant KCL-22 CML cells; experiment: MTS cell viability assay, T315I Abl mutant KCL-22 CML cells; assay type: cell-based; settings: Homo sapiens, 48 h exposure, quadruplicate, read-out: IC50 values against cancer cells, T315l Alb mutant KCL-22 CML
Description: as §1

TYK2 = TYK2 (Homo sapiens, UniProt P29597); experiment: In vitro kinase assay with recombinant protein (33P-ATP), TYK2; assay type: biochemical; settings: 120 min at room temperature, read-out: IC50 against kinase activity in vitro, TYK2
Chain of TYK2 (P29597 whole entry): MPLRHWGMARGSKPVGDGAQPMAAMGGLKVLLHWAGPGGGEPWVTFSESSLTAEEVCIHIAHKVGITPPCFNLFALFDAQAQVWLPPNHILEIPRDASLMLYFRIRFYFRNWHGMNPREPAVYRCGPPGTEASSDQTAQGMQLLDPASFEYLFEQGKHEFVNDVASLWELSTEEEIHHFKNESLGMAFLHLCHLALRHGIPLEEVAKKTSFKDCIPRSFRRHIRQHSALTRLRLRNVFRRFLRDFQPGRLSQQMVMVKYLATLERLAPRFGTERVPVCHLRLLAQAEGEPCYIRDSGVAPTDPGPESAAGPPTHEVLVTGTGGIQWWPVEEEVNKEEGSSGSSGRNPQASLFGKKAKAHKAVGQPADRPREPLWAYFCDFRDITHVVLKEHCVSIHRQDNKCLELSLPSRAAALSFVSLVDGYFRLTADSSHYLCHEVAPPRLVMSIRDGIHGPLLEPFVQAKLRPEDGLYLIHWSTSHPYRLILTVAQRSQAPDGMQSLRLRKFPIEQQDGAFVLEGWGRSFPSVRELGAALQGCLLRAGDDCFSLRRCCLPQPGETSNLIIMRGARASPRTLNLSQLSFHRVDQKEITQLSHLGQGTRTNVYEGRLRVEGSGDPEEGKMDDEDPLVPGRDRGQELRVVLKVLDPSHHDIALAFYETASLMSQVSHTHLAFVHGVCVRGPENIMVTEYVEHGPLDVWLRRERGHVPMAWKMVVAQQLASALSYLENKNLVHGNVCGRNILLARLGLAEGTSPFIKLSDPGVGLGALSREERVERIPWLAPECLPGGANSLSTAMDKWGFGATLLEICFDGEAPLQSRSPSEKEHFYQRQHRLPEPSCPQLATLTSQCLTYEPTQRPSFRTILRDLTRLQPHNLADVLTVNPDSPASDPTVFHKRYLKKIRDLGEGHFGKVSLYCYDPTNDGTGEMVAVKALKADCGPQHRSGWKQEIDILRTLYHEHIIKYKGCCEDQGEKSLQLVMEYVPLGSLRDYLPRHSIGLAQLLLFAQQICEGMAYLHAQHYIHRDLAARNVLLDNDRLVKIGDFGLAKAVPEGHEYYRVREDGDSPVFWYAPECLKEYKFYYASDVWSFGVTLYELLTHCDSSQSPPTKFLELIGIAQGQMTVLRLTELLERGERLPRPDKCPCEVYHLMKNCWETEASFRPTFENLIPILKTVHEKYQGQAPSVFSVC
Description: as §2

[4] = test system: MIA-PaCa2 pancreatic cancer cells; experiment: MTS cell viability assay, MIA-PaCa2 pancreatic cancer cells; assay type: cell-based; settings: Homo sapiens, 48 h exposure, quadruplicate, read-out: IC50 values against cancer cells, PaCa2 pancreatic
Description: as §1

[5] = test system: DU145 prostate cancer cells; experiment: MTS cell viability assay, DU145 prostate cancer cells; assay type: cell-based, human; settings: quadruplicate, read-out: IC50 values against cancer cells, DU145 prostate
JAK2 = JAK2 (Homo sapiens, UniProt O60674); experiment: In vitro kinase assay with recombinant protein (33P-ATP), JAK2; assay type: biochemical; settings: 120 min at room temperature, read-out: IC50 against kinase activity in vitro, JAK2
Chain of JAK2 (O60674 whole entry): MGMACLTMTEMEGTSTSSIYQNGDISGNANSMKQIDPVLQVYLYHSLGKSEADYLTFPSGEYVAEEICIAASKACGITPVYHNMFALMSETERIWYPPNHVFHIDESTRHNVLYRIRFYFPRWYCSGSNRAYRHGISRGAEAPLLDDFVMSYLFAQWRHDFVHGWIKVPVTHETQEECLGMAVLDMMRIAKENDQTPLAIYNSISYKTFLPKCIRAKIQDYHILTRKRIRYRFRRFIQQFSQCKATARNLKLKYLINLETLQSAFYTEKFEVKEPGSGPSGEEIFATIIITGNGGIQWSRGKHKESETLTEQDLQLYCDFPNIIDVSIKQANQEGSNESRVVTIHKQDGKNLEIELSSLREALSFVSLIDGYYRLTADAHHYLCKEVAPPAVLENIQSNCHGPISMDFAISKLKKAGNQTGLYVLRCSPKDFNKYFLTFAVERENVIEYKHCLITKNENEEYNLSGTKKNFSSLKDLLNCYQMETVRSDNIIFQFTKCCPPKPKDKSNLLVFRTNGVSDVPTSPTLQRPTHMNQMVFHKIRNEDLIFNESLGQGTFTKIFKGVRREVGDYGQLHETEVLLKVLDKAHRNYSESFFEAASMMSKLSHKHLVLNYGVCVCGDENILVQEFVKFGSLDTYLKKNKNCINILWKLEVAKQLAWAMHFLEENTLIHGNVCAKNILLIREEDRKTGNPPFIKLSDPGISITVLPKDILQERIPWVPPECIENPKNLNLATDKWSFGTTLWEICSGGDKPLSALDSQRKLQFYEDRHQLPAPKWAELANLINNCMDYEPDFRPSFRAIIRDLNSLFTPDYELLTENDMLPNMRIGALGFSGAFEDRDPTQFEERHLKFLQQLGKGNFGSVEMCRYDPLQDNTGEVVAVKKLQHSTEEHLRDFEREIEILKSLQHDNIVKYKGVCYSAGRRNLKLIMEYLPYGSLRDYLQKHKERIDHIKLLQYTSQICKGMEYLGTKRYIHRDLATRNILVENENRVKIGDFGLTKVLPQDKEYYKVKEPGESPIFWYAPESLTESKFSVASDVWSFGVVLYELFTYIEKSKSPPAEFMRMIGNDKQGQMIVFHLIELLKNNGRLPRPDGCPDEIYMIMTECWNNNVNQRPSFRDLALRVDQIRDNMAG
Description: as §2

[6] = test system: SKOV3 ovarian cancer cells; experiment: MTS cell viability assay, SKOV3 ovarian cancer cells; assay type: cell-based, human; settings: for IC50: Homo sapiens, SK-OV-3, MTS cell viability, 48 h exposure, quadruplicate, read-out: IC50 values against cancer cells, SKOV3 ovarian; for effect on viabilities of SKOV3 ovarian cancer cells: MTS assay, FIG. 3 legend, result in words
[7] = Homo sapiens, A2058, 48 h, 48 h exposure
[8] = Homo sapiens, A2058, 48 h exposure
[9] = Homo sapiens, DU-145, 48 h exposure
[10] = Homo sapiens, DU-145, 48 h, 48 h exposure

SMILES: CN(CCO/N=C1/C(=C2/C(=O)Nc3ccc(Br)cc32)Nc2ccccc21)CC(O)CO (centres unmarked) [Compound 1278]
- IC50 [1]: 600 nM
- IC50 (ABL1 (T315I)): 1550 nM
- IC50 (AuroraA): 122 nM
- IC50 [2]: 710 nM
- IC50 (ABL1): 392 nM
- IC50 (A2058 melanoma cells; [7]): 1700 nM
- IC50 (c-Src): 12.1 nM
- IC50 [3]: 500 nM
- IC50 (TYK2): 27 nM
- IC50 [4]: 2500 nM
- IC50 ([5]; 48 h exposure): 780 nM
- IC50 (JAK2): 104 nM
- IC50 [6]: 750 nM

SMILES: O=C1Nc2ccc(Br)cc2/C1=C1/Nc2ccccc2/C1=N\OCCN1CCN(CCOCCO)CC1 [Compound 1286]
- IC50 [1]: 930 nM
- IC50 [2]: 1360 nM
- IC50 [6]: 1840 nM

SMILES: O=C1Nc2ccc(Br)cc2C1=C1Nc2ccccc2C1=NOCCN1CCNCC1 [Compound 1289]
- IC50 [1]: 380 nM
- IC50 (ABL1 (T315I)): 214 nM
- IC50 (AuroraA): 143 nM
- IC50 [2]: 400 nM
- IC50 (ABL1): 71.4 nM
- IC50 (A2058 melanoma cells; [8]): 1100 nM
- IC50 (c-Src): 3.7 nM
- IC50 [3]: 600 nM
- IC50 (TYK2): 20.1 nM
- IC50 [4]: 460 nM
- IC50 [5, 9]: 690 nM
- IC50 (JAK2): 47.6 nM
- IC50 [6]: 460 nM
- effect on viabilities of SKOV3 ovarian cancer cells [6]: reduce viabilities

SMILES: CN1CCN(CCO/N=C2/C(=C3/C(=O)Nc4ccc(Br)cc43)Nc3ccccc32)CC1 [Compound 1284]
- IC50 [1]: 440 nM
- IC50 [2]: 1000 nM
- IC50 [6]: 1360 nM

SMILES: CCN(CC)CCO/N=C1/C(=C2/C(=O)Nc3ccc(Br)cc32)Nc2ccccc21 [Compound 1276]
- IC50 [1]: 470 nM
- IC50 (ABL1 (T315I)): 6580 nM
- IC50 (AuroraA): 954 nM
- IC50 [2]: 300 nM
- IC50 (ABL1): 1020 nM
- IC50 (A2058 melanoma cells; [7]): 360 nM
- IC50 (c-Src): 34.3 nM
- IC50 [3]: 300 nM
- IC50 (TYK2): 31.6 nM
- IC50 [4]: 1200 nM
- IC50 [5, 10]: 420 nM
- IC50 (JAK2): 526 nM
- IC50 [6]: 410 nM
- effect on viabilities of SKOV3 ovarian cancer cells [6]: reduce viabilities

SMILES: O=C1Nc2ccc(Br)cc2C1=C1Nc2ccccc2C1=NOCCN1CCCC1 [Compound 1281]
- IC50 [1]: 400 nM
- IC50 (ABL1 (T315I)): 7080 nM
- IC50 (AuroraA): 2050 nM
- IC50 [2]: 370 nM
- IC50 (ABL1): 2500 nM
- IC50 (A2058 melanoma cells; [8]): 1800 nM
- IC50 (c-Src): 19.7 nM
- IC50 [3]: 580 nM
- IC50 (TYK2): 21 nM
- IC50 [4]: 440 nM
- IC50 [5, 9]: 660 nM
- IC50 (JAK2): 264 nM
- IC50 [6]: 750 nM

SMILES: CN(C)CCO/N=C1/C(=C2/C(=O)Nc3ccc(Br)cc32)Nc2ccccc21 [Compound 1501]
- IC50 (A2058 melanoma cells; [8]): 880 nM
- IC50 [5, 9]: 320 nM

SMILES: O=C1Nc2ccc(Br)cc2/C1=C1/Nc2ccccc2/C1=N\OCCN1CCCC1 [Compound 1280]
- IC50 [1]: 840 nM
- IC50 [2]: 660 nM
- IC50 (A2058 melanoma cells; [8]): 1600 nM
- IC50 [3]: 860 nM
- IC50 [4]: 960 nM
- IC50 [5, 9]: 660 nM
- IC50 [6]: 1340 nM

SMILES: O=C1Nc2ccc(Br)cc2/C1=C1/Nc2ccccc2/C1=N\OCCN1CCN(CCO)CC1 [Compound 1282]
- IC50 [1]: 500 nM
- IC50 [2]: 780 nM
- IC50 [4]: 1000 nM
- IC50 [5, 9]: 910 nM
- IC50 [6]: 770 nM

SMILES: CN(CCO/N=C1/C(=C2/C(=O)Nc3ccc(Br)cc32)Nc2ccccc21)CC(O)CO (centres unmarked) [Compound 1279]
- IC50 (ABL1 (T315I)): 5550 nM
- IC50 (AuroraA): 301 nM
- IC50 (ABL1): 1440 nM
- IC50 (A2058 melanoma cells; 48 h exposure): 2200 nM
- IC50 (c-Src): 69.6 nM
- IC50 (TYK2): 62.7 nM
- IC50 ([5]; 48 h exposure): 2000 nM
- IC50 (JAK2): 410 nM

SMILES: CCN(CC)CCON=C1C(=C2C(=O)Nc3ccc(Br)cc32)Nc2ccccc21 [Compound 1277]
- IC50 (ABL1 (T315I)): > 10000 nM
- IC50 (AuroraA): 3310 nM
- IC50 (ABL1): 4770 nM
- IC50 (A2058 melanoma cells; [7]): 1900 nM
- IC50 (c-Src): 95.4 nM
- IC50 (TYK2): 146 nM
- IC50 [5, 10]: 770 nM
- IC50 (JAK2): 1250 nM

SMILES: CCCN(CCC)CCO/N=C1/C(=C2/C(=O)Nc3ccc(Br)cc32)Nc2ccccc21 [Compound 1502]
- IC50 (A2058 melanoma cells; [8]): 1700 nM
- IC50 [5, 9]: 1500 nM
